Measurements reported in patent US11957696B2 (Propella Therapeutics, Inc., priority 2021, dated 2024).
Like-named read-outs stand apart in the source and are kept apart here.

Experiments:
[1] = cynomolgus monkey, in vivo
Method: Test system/animals: gonadally intact, sexually mature, male cynomolgus monkeys. Administration of Test Materials: The vehicle control and test article were administered once every 2 weeks for 13 weeks (Days 1, 15, 29, 43, 57, and 71) during the study via intramuscular injection. […] The dose levels were 20, 60, or 200 mg/kg/dose and administered at a dose volume of 0.10, 0.15, and 0.25 mL/kg/site, respectively. The control group received the vehicle control in the same manner as the treated groups at a dose volume of 0.25 mL/kg/site.
The vehicle control and test article formulations were administered via bolus intramuscular injection into the epaxial muscles of the lumbar back. Animals at 0 and 200 mg/kg/dose were dosed in 4 dose sites, animals at 20 mg/kg/dose were dosed in 1 dose site, and animals at 60 mg/kg/dose were dosed in 2 dose sites. The needle (23-gauge, ⅝-inch) was inserted perpendicular to the skin surface. The location of the injection site was documented for each dose. In addition, each injection site was marked with a single large dot at the exact site of needle insertion, for purposes of erythema and swelling evaluation. Each injection site was remarked at least once weekly and prior to necropsy.
Individual doses were based on the most recent body weights. Formulations were warmed at 35° C. (±5° C.) for at least 1 hour prior to dosing.
The following parameters and endpoints were evaluated in this study: mortality, clinical signs, body weights, body weight gains, ophthalmology and electrocardiographic examinations, clinical pathology parameters (hematology, coagulation, clinical chemistry, and urinalysis), LH and ACTH analyses, toxicokinetic parameters, gross necropsy findings, organ weights, and histopathologic examinations. Statistical analyses were performed using Group Pair-wise Comparisons (general ANOVA).

[2] = Tissue uptake study: plasma and tissue concentrations of abiraterone and abiraterone decanoate after single IV or IM injection; assay type: in vivo, rats, strain CD [Crl:CD(SD)]; details: CD [Crl:CD(SD)], rat, intramuscular, 90 mg/kg
Method: The objective of this study is to collect tissue samples for the determination of the uptake of abiraterone decanoate and abiraterone following intravenous (IV) and intramuscular (IM; abiraterone decanoate only) injection. Additionally, blood steroid levels also were evaluated.
(§1) Vehicle for IM injection: Corn oil with 10% benzyl alcohol (w/v) and 20% benzyl benzoate (w/v). The study followed the protocols described below.
For intramuscular injections, the test article and vehicle will be administered once as a single intramuscular dose on Day 1 to animals in Groups 1 and 3. Doses will be administered via bolus intramuscular injection into the biceps femoris on the hind legs. The Test article will be warmed at 35° C. (±5°) for at least 1 hour prior to dosing. Individual doses will be based on the most recent body weights.
For IV injections, the test article will be administered once on Day 1 as a single intravenous bolus injection to animals in Groups 2 and 4. The test article will be administered via the tail vein as a bolus intravenous injection (less than 2 minutes). Individual doses will be based on the most recent body weights.
(§2) For serum steroid analysis, blood samples were collected from animals in each study group at predose and at terminal necropsy according to the following protocol. Animals were designated for 72 hr and 168 hr necropsy, the animals will be fasted overnight before scheduled blood collections. Plasma samples will be used for ACTH level analysis. Serum samples will be used for LH level analysis and steroid level analysis. Plasma samples will also be collected at various time points and be analyzed for abiraterone decanoate and abiraterone. Representative samples of tissues will be collected and snap frozen and analyzed. Lung, Liver, Adrenal glands, Prostate, Testes (Sample 1 and 2) and lymph nodes tissues will be collected. Lymph node(s) draining administration site(s): Inguinal (Groups 1-4) and Iliac (Groups 1 and 3 only). Lymph node, mandibular and Lymph node mesenteric tissues will also be collected.

[3] = test system: LH; experiment: LH analysis (serum) in 13-week study; assay type: in vivo, cynomolgus monkeys; set-up: LH: unit not given here
Method: Sample Collection for LH Analysis (Serum): Blood samples (approximately 2.5 mL) were collected from all animals via the femoral vein for determination of the serum concentrations of LH. The animals were fasted prior to blood collection except one deviation.

[4] = PK of single IM abiraterone decanoate in chemically castrated monkeys (abiraterone plasma); assay type: in vivo, cynomolgus monkeys; details: single IM 10 mg/kg
[5] = biological target: T1, CYP17 (Rattus norvegicus, UniProt P11715); experiment: Serum steroid levels after single IV or IM injection in tissue uptake study; assay type: in vivo, strain CD [Crl:CD(SD)]; details: rats
T1 construct: endogenous in cells; host or cells: live CD [Crl:CD(SD)] rats (in vivo)
T1 sequence (P11715 1-507): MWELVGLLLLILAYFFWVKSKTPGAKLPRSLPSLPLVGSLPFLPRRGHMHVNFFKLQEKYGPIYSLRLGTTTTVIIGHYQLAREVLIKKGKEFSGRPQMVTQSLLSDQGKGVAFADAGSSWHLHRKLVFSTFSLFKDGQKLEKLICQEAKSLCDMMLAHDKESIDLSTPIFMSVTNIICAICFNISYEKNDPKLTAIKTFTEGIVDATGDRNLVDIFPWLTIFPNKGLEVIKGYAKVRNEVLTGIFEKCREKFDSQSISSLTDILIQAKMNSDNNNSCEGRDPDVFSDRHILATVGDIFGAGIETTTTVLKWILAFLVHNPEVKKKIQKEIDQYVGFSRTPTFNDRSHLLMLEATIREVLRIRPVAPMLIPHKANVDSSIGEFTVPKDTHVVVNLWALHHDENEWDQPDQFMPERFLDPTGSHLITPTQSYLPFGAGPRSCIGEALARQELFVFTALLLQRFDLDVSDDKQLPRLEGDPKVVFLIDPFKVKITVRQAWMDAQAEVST
Description: as §1, §2

[6] = DVS water uptake of abiraterone decanoate forms; assay type: physicochemical; details: Forms A, B, and C
[7] = single intramuscular dose (90 mg/kg)

## CCCCCCCCCC(=O)O[C@H]1CC[C@@]2(C)C(=CC[C@@H]3[C@@H]2CC[C@]2(C)C(c4cccnc4)=CC[C@@H]32)C1 [Abiraterone Decanoate, abiraterone decanoate]
[1]
  adrenal gland changes: minimal to moderate cortical hypertrophy
  clinical observations: swelling and/or nodules at the injection sites
  findings in the lung: minimal to moderate granulomatous inflammation
  ophthalmology findings, qualitative or quantitative ECG parameters: no effect
  test article-related changes in the epididymis: mild to severe reduced luminal sperm and/or minimal to mild increased germ cell debris
  test article-related changes in the prostate gland: mild to moderate prostate gland atrophy
  test article-related changes in the seminal vesicle: minimal to mild seminal vesicle atrophy
  test article-related changes in the testes: minimal to moderate germ cell depletion and minimal to mild Leydig cell hypertrophy
  test article-related changes in the thymus: minimal to mild increased lymphocytes
  test article-related findings in the mammary gland: minimal to mild lobular and/or duct hyperplasia
[1]; 20 mg/kg
  microscopic findings at terminal necropsy: test article-related microscopic findings
[1]; 20 mg/kg/day
  albumin concentration: minimal decreases
[1]; 60 mg/kg
  microscopic findings at terminal necropsy: test article-related microscopic findings
[1]; 200 mg/kg
  mean corpuscular volume (MCV) and mean corpuscular hemoglobin (MCH): minimal decreases
  red cell distribution width (RDW): minimal increase
[1]; male, 13 weeks
  highest non-severely toxic dose: 60 mg/kg/dose
[2]; iliac lymph node, read-out: Decanoate concentration, iliac lymph
  concentration at 7 days: 91000 ng/g
[2]; inguinal lymph node, read-out: Decanoate concentration, Inguinal Lymph
  concentration at 7 days: 254 ng/g
[2]; liver, read-out: Decanoate concentration, Liver
  concentration at 7 days: 10.4 ng/g
[2]; lung, read-out: Decanoate concentration, Lung
  concentration at 7 days: 735 ng/g
[2]; male, adrenal, read-out: Decanoate concentration, Adrenal
  concentration at 7 days: 12.1 ng/g
[2]; male, plasma, read-out: Decanoate concentration, Plasma
  concentration at 7 days: 3.1 ng/mL
[2]; male, prostate, read-out: Decanoate concentration, Prostate
  concentration at 7 days: 0 ng/g
[2]; male, testes, read-out: Decanoate concentration, Testes
  concentration at 7 days: 1.3 ng/g
[3]; 20 mg/kg, N 4, Day 8
  LH: 1.67
[3]; 20 mg/kg, N 4, Day 15
  LH: 1.67
[3]; 20 mg/kg, N 4, Day 78
  LH: 5.67
[3]; 20 mg/kg, N 4, Day 85
  LH: 3.12
[3]; 60 mg/kg, N 4, Day 8
  LH: 2.78
[3]; 60 mg/kg, N 4, Day 15
  LH: 2.73
[3]; 60 mg/kg, N 4, Day 78
  LH: 7.12
[3]; 60 mg/kg, N 4, Day 85
  LH: 7.07
[3]; 200 mg/kg, N 6, Day 8
  LH: 1.98
[3]; 200 mg/kg, N 6, Day 15
  LH: 2.33
[3]; 200 mg/kg, N 6, Day 78
  LH: 5.04
[3]; 200 mg/kg, N 6, Day 85
  LH: 5.27
[3]; following abiraterone decanoate administration
  LH concentrations: no clear effects
[4]
  abiraterone in the plasma at Day 70: measurable
[5]; [7]
  circulating androgen levels (androstenedione and testosterone): potent reductions
  levels of progesterone and corticosterone: increased
[5]; single intramuscular dose, last time point tested
  sustained reduction of testosterone: ≥ 168 h
[6]
  DVS Max H2O uptake: N/A-non-hygroscopic
